Where only a bound is given, the exact number is not on record here.

The subject of data set [1] is Vero (African Green Monkey Kidney) cells. Nature of the data set: In vitro maximum tolerated dose (MTL), Vero cells. In kind it is cell-based.
Details of data set [2]: species or system albino mice. Conditions: mouse.
A short description of data set [3]: In vitro maximum tolerated dose (MTL), Vero cells. In kind it is cell-based, African Green Monkey. The note with it: monkey, In Vitro.
The test system of a further data set is herpes simplex virus. Description: In Vivo - Intravaginal Herpes Virus Infection in Mice. More on the design: species or system albino mice. Conditions: Mus musculus, 336 h, oral or intraperitoneal, b.i.d. 5 days, NA = Not active at dose levels tested, read-out: In Vivo MED (Minimum effective dose). As to the method:
In Vivo - Intravaginal Herpes Virus Infection in Mice
Approximately 1 hr. prior to infection, the vaginas of 15 gm albino mice were swabbed with cotton saturated with 0.1 N NaOH to remove vaginal secretions and to irritate the vaginal mucosa slightly. At the proper time, 0.05 ml of an appropriate dose of herpes simplex virus was placed deep in the vagina. Starting 2.5 hrs. prior to infection, the mice were medicated either orally or intraperitoneally. Medication was continued daily for a total of 5 days on a b.i.d. regimen. The test was terminated after 14 days. A comparison of the number of surviving mice and/or extension of survival was made at the end of the test. The criterion for activity was a statistically significant extension of the average survival time of the test group over that of the control mice in two experiments.

Turning to “1,4-Dihydro-1-(4-fluorophenyl)-7-(3-methyl-5-thiazolyl)-4-oxo-3-quinolinecarboxamide [Example 37d]”, the “In Vitro MTL (Maximum tolerated dose)” value in data set [1] (monkey, vero cells, 72 h) is > 100. Besides, the “In Vivo MTL (Maximum tolerated dose)” value in data set [2] is on record as > 100.
Turning to `NC(=O)c1cn(-c2ccc(Cl)cc2)c2cc(-c3ccncc3)ccc2c1=O` [Example 32, 1-(4-Chlorophenyl)-1,4-dihydro-7-(4-pyridinyl)-4-oxo-3quinolinecarboxamide], in data set [3] (Vero cells), the MNTC at 72 h is > 25 µg/mL. Further, the minimal effective dose in the data set on herpes simplex virus came to 50 mg/kg/day.
Turning to `NC(=O)c1cn(-c2ccccc2)c2cc(-c3ccncc3)ccc2c1=O` [Example 45e, 1,4-Dihydro-4-oxo-1-phenyl-7-(4-pyridinyl)-3-quinolinecarboxamide], the “In Vitro MTL (Maximum tolerated dose)” value in data set [1] (In Vitro, Vero cells, 4320 min) was > 6.25. Besides, the minimal effective dose in the data set with herpes simplex virus was 25 mg/kg/day. In data set [2], the “In Vivo MTL (Maximum tolerated dose)” value amounted to 50.
Take `NC(=O)c1cn(-c2ccc(F)cc2)c2cc(-c3ccncc3)ccc2c1=O` [Example 1h, 1-(4-fluorophenyl)-1,4-dihydro-4-oxo-7-(4-pyridinyl)-3-quinolinecarboxamide]: in data set [3] (vero cells), the MNTC at 72 h was > 3.1 µg/mL. Further, in the data set on herpes simplex virus, the minimal effective dose was 12.5 to 25 mg/kg/day. Besides, in data set [2], the “In Vivo MTL (Maximum tolerated dose)” value is given as 50-100.
For `NC(=O)c1cn(-c2ccncc2)c2cc(-c3ccncc3)ccc2c1=O` [Example 10, 1,4-Dihydro-4-oxo-1,7-di(4-pyridinyl)-3-quinolinecarboxamide] the same measures were > 200 µg/mL, 50 to 75 mg/kg/day and 75.
For `CCn1c(=O)c(C(N)=O)c(O)c2ccc(-c3ccncc3)cc21` [Example 38c, 1-Ethyl-1,2-dihydro-4-hydroxy-2-oxo-7-(4-pyridinyl)-3quinolinecarboxamide] the same measures were > 12.5 µg/mL, 100 to 200 mg/kg/day and 100.
For `NC(=O)c1cn(-c2cccc(F)c2)c2cc(-c3ccncc3)ccc2c1=O` [Example 46e, 1,4-Dihydro-1-(3-fluorophenyl)-4-oxo-7-(4-pyridinyl)3-quinolinecarboxamide] the same measures were > 6.25 µg/mL, 25 to 50 mg/kg/day and 50.
On to `CCn1cc(C(=O)NC)c(=O)c2ccc(-c3ccncc3)cc21` [Example 28, 1-Ethyl-1,4-dihydro-N-methyl-4-oxo-7-(4-pyridinyl)-3quinolinecarboxamide], for which the MNTC at 72 h in data set [3] (vero cells) was > 25 µg/mL. The minimal effective dose in the data set on herpes simplex virus came to 50 mg/kg/day. In addition, the “In Vivo MTL (Maximum tolerated dose)” value in data set [2] turned out to be 50.
For `NC(=O)c1c(N)n(-c2ccc(F)cc2)c2cc(-c3ccncc3)ccc2c1=O` [Example 41c, 2-Amino-1,4-dihydro-1-(4-fluorophenyl)-4-oxo-7-(4-pyriridinyl)-3-quinolinecarboxamide], the MNTC at 72 h in data set [3] (vero cells) was > 100 µg/mL. Also, in the data set on herpes simplex virus, the minimal effective dose turned out to be 50 mg/kg/day. For the same compound, the “In Vivo MTL (Maximum tolerated dose)” value in data set [2] is recorded as 100.
The matching figures for `NC(=O)c1cn(-c2ccc(F)cc2)c2cc(-c3cc[n+]([O-])cc3)ccc2c1=O` [Example 2, 1-(4-Fluorophenyl)-1,4-dihydro-4-oxo-7-(N-oxide-4-pyridinyl)-3-quinolinecarboxamide]: > 12.5 µg/mL, 25 mg/kg/day and 100.
For `Cn1c(O)c(C(N)=O)c(=O)c2ccc(-c3ccncc3)cc21` [Example 39b, 1,4-Dihydro-2-hydroxy-1-methyl-4-oxo-7-(4-pyridinyl)3-quinolinecarboxamide] the same measures were 3.1 µg/mL, 150 to 200 mg/kg/day and 150.
For `NC(=O)c1cn(-c2ccc(Br)cc2)c2cc(-c3ccncc3)ccc2c1=O` [Example 31, 1-(4-Bromophenyl)-1,4-dihydro-7-(4-pyridinyl)-4-oxo-3quinolinecarboxamide] the same measures were > 12.5 µg/mL, 50 mg/kg/day and 50.
`CCN(CC)CNC(=O)c1cn(-c2ccc(F)cc2)c2cc(-c3ccncc3)ccc2c1=O` [Example 3, N-(Diethylaminomethyl)-1-(4-fluorophenyl)-1,4-dihydro-4-oxo-7-(4-pyridinyl)-3-quinolinecarboxamide] registered an MNTC at 72 h in data set [3] (vero cells) of 12.5 µg/mL. In addition, the minimal effective dose with herpes simplex virus came to 50 mg/kg/day. In addition, in data set [2], the “In Vivo MTL (Maximum tolerated dose)” value amounted to 100.
Compound `CCn1cc(C(N)=O)c(=O)c2ccc(-c3ccncc3)cc21` [Example 6, 1-Ethyl-1,4-dihydro-4-oxo-7-(4-pyridinyl)-3-quinolinecarboxamide] yielded an MNTC at 72 h in data set [3] (vero cells) of 12.5 µg/mL. Moreover, the minimal effective dose in the data set on herpes simplex virus came to 50 mg/kg/day. For the same compound, the “In Vivo MTL (Maximum tolerated dose)” value in data set [2] was found to be 50.
With `COc1ccc(-n2cc(C(N)=O)c(=O)c3ccc(-c4ccncc4)cc32)cc1` [Example 8, 1,4-Dihydro-1-(4-methoxyphenyl)-4-oxo-7-(4-pyridinyl)-3quinolinecarboxamide], in data set [3] (vero cells), the MNTC at 72 h was > 25 µg/mL. In data set [2], the “In Vivo MTL (Maximum tolerated dose)” value is reported as 50.
For `NC(=O)c1cn(-c2ccc(F)cc2)c2cc(-c3ccncc3)c(F)cc2c1=O` [Example 48c] the same measures were 6.25 µg/mL and > 100.
The matching figures for `CCn1cc(C(=O)NO)c(=O)c2ccc(-c3ccncc3)cc21` [Example 30, 1-Ethyl-1,4-dihydro-N-hydroxy-4-oxo-7-(4-pyridinyl)-3quinolinecarboxamide]: 25 µg/mL and 100.
For `NC(=O)c1cn(-c2ccc(Cl)c(Cl)c2)c2cc(-c3ccncc3)ccc2c1=O` [Example 14, 1-(3,4-Dichlorophenyl)-1,4-dihydro-4-oxo-7-(4-pyridinyl)-3-quinolinecarboxamide], the MNTC at 72 h in data set [3] (vero cells) was > 12.5 µg/mL. In addition, the minimal effective dose in the data set with herpes simplex virus was found to be 50 mg/kg/day. The “In Vivo MTL (Maximum tolerated dose)” value in data set [2] came out at 100.
Compound `NC(=O)c1cn(C2CC2)c2cc(-c3ccncc3)ccc2c1=O` [Example 11, 1-Cyclopropyl-1,4-dihydro-4-oxo-7-(4-pyridinyl)-3-quinolinecarboxamide] registered an MNTC at 72 h in data set [3] (vero cells) of 25 µg/mL. The “In Vivo MTL (Maximum tolerated dose)” value in data set [2] was found to be 25.
On to `NC(=O)c1cn(Cc2ccc(Cl)c(Cl)c2)c2cc(-c3ccncc3)ccc2c1=O` [Example 12, 1-(3,4-Dichlorobenzyl)-1,4-dihydro-4-oxo-7-(4-pyridinyl)-3-quinolinecarboxamide], for which, in data set [3] (vero cells), the MNTC at 72 h is > 100 µg/mL. Moreover, the “In Vivo MTL (Maximum tolerated dose)” value in data set [2] is > 100.

Values taken from patent US4959363A, “Quinolonecarboxamide compounds, their preparation and use as antivirals” (Sterling Drug Inc., priority 1989, dated 1990).
